Converted amounts (≈) assume the structure as drawn. Where two headings read alike, the source gives them in different places. Each block holds one molecule with its values, some of them ahead of it.
What was measured:
Type in all cases: cell-based
Pseudomonas aeruginosa = assay: MIC versus Pseudomonas aeruginosa strains incl. Class B metallo beta lactamases (Table 3)
Text: (§1) Tables 2 and 3 show MIC values of compound 26 (YU253434) and 42 YU253911 versus E. coli and P. Aeruginosa strains containing Class B metallo beta lactamases VIM and NDM compared with Meropenem as a standard.

E. coli = assay: MIC versus E. coli strains incl. Class B metallo beta lactamases (Table 2); conditions: Escherichia coli
Text: as §1

[1] = test system: E. coli clinical isolates; assay: Microdilution broth MIC, E. coli clinical isolates (Table 1); conditions: Escherichia coli
Protocol: (§2) Microdilution Broth Minimum Inhibitory Concentrations (MICs)
(§3) MICs were performed in triplicate in cation adjusted Mueller-Hinton (MH) broth 30 according to CLSI guidelines. Firstly, overnight cultures of E. coli and K. pneumoniae clinical isolates were inoculated into 5 ml MH broth to OD600=0.1 and grown to OD600=0.224 (approximately 1-2×10^8 CFU/ml). These cultures were diluted (3 μl+4997 μl MH) and 100 μl inoculated into each well of a 96-well plate containing 100 μl of serial dilutions of compound 26 (YU253434), ampicillin, ceftazidime, or imipenem. The plates were placed in a 37° C. incubator for 18-20 hours and wells checked for growth.

[2] = test system: K. pneumoniae clinical isolates; assay: Microdilution broth MIC, K. pneumoniae clinical isolates (Table 1); conditions: Klebsiella pneumoniae, read-out: MIC
Protocol: as §2, §3

[3] = ATCC27853, P. aeruginosa isolate ATCC 27853, CLSI control
[4] = P. aeruginosa isolate AR-229, OXA-50
[5] = P. aeruginosa isolate AR-230, VIM-2
[6] = P. aeruginosa isolate AR-231, KPC-5
[7] = P. aeruginosa isolate AR-232, OXA-50
[8] = P. aeruginosa isolate AR-245, VIM
[9] = P. aeruginosa isolate AR-249, VIM
[10] = P. aeruginosa isolate AR-254, VIM
[11] = P. aeruginosa isolate AR-270, OXA-50
[12] = P. aeruginosa isolate J4242, UNC-D
[13] = ATCC25822, E. coli isolate ATCC 25822, CLSI costrol
[14] = E. coli isolate AK-114, KPC-3, TEM-18
[15] = E. coli isolate AR-11, CTX-M-15, OxA-1
[16] = E. coli isolate J4245, Michigan

MIC (Pseudomonas aeruginosa; [3]): 0.5 µg/mL (≈ 0.693 µM)
MIC (Pseudomonas aeruginosa; [4]): 0.5 µg/mL (≈ 0.693 µM)
MIC (Pseudomonas aeruginosa; [5]): 1 µg/mL (≈ 1.39 µM)
MIC (Pseudomonas aeruginosa; [6]): 1 µg/mL (≈ 1.39 µM)
MIC (Pseudomonas aeruginosa; [7]): 0.5 µg/mL (≈ 0.693 µM)
MIC (Pseudomonas aeruginosa; [8]): 0.5 µg/mL (≈ 0.693 µM)
MIC (Pseudomonas aeruginosa; [9]): 1 µg/mL (≈ 1.39 µM)
MIC (Pseudomonas aeruginosa; P. aeruginosa isolate AR-252): 1 µg/mL (≈ 1.39 µM)
MIC (Pseudomonas aeruginosa; [10]): 2 µg/mL (≈ 2.77 µM)
MIC (Pseudomonas aeruginosa; [11]): 0.25 µg/mL (≈ 0.347 µM)
MIC (Pseudomonas aeruginosa; [12]): 0.5 µg/mL (≈ 0.693 µM)
MIC (E. coli; [13]): > 64 µg/mL
MIC (E. coli; E. coli isolate AA-118, NDM): > 64 µg/mL
MIC (E. coli; E. coli isolate AA-119, NDM): > 64 µg/mL
MIC (E. coli; E. coli isolate AA-128, NDM): > 64 µg/mL
MIC (E. coli; [14]): 2 µg/mL (≈ 2.77 µM)
MIC (E. coli; E. coli isolate AR-1, KPC-3): > 64 µg/mL
MIC (E. coli; [15]): 4 µg/mL (≈ 5.55 µM)
MIC (E. coli; E. coli isolate AR-137, NDM-6): > 64 µg/mL
MIC (E. coli; E. coli isolate AR-145, NDM): > 64 µg/mL
MIC (E. coli; E. coli isolate J4244, MN): > 64 µg/mL
MIC (E. coli; [16]): > 64 µg/mL
SMILES: CC(C)(O/N=C(\C(=O)N[C@H]1CN2CC(C(=O)NCCN3C(=O)c4cc(O)c(O)cc4C3=O)=C(C(=O)O)N2C1=O)c1nc(N)sc1Cl)C(=O)O [Compound 42, (S,Z)-6-(2-(2-amino-5-chlorothiazol-4-yl)-2-(((2-carboxypropan-2-yl)oxy)imino)acetamido)-2-((2-(5,6-dihydroxy-1,3-dioxoisoindolin-2-yl)ethyl)carbamoyl)-5-oxo-6,7-dihydro-1H,5H-pyrazolo[1,2-a]pyrazole-3-carboxylic acid]

SMILES: C[C@@H](O)[C@H]1C(=O)N2C(C(=O)O)=C(SCCN=CN)C[C@H]12 [Imipenem]
MIC ([1]; BAA202, E. coli BAA-202, SHV-1, read-out: MIC): 0.25 µg/mL (≈ 0.835 µM)
MIC ([1]; E. coli 35218, TEM-1): < 0.125 µg/mL
MIC ([1]; E. coli LC4, TEM, SHV-12): < 0.125 µg/mL
MIC ([1]; E. coli LC12, CTX-M-1 grp(15)): 128 µg/mL (≈ 428 µM)
MIC ([1]; E. coli LC15, CTX-M-9 group, CTX-M-1 grp(15)): < 0.125 µg/mL
MIC ([1]; E. coli LC33, CTX-M-9 group): < 0.125 µg/mL
MIC ([1]; E. coli LC38, CTX-M-1 grp(15), PB AmpC (ACT/MIR)): < 0.125 µg/mL
MIC ([1]; E. coli LC41, TEM (238S), PB AmpC (ACT/MIR), CTX-M-1 grp(15)): < 0.125 µg/mL
MIC ([1]; E. coli LC77, TEM, KPC, read-out: MIC): 2 µg/mL (≈ 6.68 µM)
MIC ([1]; E. coli LC81, SHV (238S + 240K), read-out: MIC): < 0.125 µg/mL
MIC ([1]; E. coli LC91, CTX-M-1 grp(15), CMY (group II)): < 0.125 µg/mL
MIC ([1]; E. coli LC98, CMY (group II), read-out: MIC): < 0.125 µg/mL
MIC ([1]; E. coli LC109, CTX-M-9 group, CMY (group II)): < 0.125 µg/mL
MIC ([1]; E. coli LC111, TEM (164S), read-out: MIC): < 0.125 µg/mL
MIC ([1]; E. coli LC136, SHV (WT + 238S), read-out: MIC): < 0.125 µg/mL
MIC ([1]; E. coli Rush24, CMY (group II), read-out: MIC): 0.25 µg/mL (≈ 0.835 µM)
MIC ([2]; K. pneumoniae 7000063, β-lactamase SHV-18): < 0.125 µg/mL
MIC ([2]; K. pneumoniae KB390 Quale, TEM-30, TEM-1, KPC-2, SHV-12): 4 µg/mL (≈ 13.4 µM)
MIC ([2]; K. pneumoniae LC40, CTX-M-1 grp(15), TEM (164S)): 0.25 µg/mL (≈ 0.835 µM)
MIC ([2]; K. pneumoniae LC56, CTX-M-1 grp(15)): 0.5 µg/mL (≈ 1.67 µM)
MIC ([2]; K. pneumoniae LC102, SHV-1 (WT + 238S)): < 0.125 µg/mL
MIC ([2]; K. pneumoniae LC121, SHV-1 (WT + 238S + 240K)): < 0.125 µg/mL
MIC ([2]; K. pneumoniae Rush23, CTX-M-9 group): < 0.125 µg/mL
MIC ([2]; K. pneumoniae VA-184, KPC-2, SHV-11, SHV-12): 8 µg/mL (≈ 26.7 µM)
MIC ([2]; K. pneumoniae VA-267, KPC-3, TEM-1, SHV-11, SHV-12): 4 µg/mL (≈ 13.4 µM)
MIC ([2]; K. pneumoniae VA-357, KPC-2, SHV-11): 8 µg/mL (≈ 26.7 µM)
MIC ([2]; K. pneumoniae VA-368, KPC-2, TEM-1, SHV-5, SHV-68): 1 µg/mL (≈ 3.34 µM)
MIC ([2]; K. pneumoniae VA-384, KPC-2, TEM-1, SHV-11, SHV-12, SHV-14): 32 µg/mL (≈ 107 µM)
MIC ([2]; K. pneumoniae VA-391, KPC-3, TEM-1, SHV-11, SHV-12, SHV-77): 4 µg/mL (≈ 13.4 µM)
MIC ([2]; K. pneumoniae VA-398, KPC-3, TEM-1, SHV-11, SHV-12, SHV-27): 1 µg/mL (≈ 3.34 µM)
MIC ([2]; K. pneumoniae VA-400, KPC-2, TEM-1, SHV-11, SHV-12): 4 µg/mL (≈ 13.4 µM)
MIC ([2]; K. pneumoniae VA-406, KPC-2, TEM-1, SHV-11, SHV-12): > 128 µg/mL
MIC ([2]; K. pneumoniae VA-410, KPC-3, TEM-1, SHV-11): 2 µg/mL (≈ 6.68 µM)

MIC (Pseudomonas aeruginosa; [3]): 1 µg/mL (≈ 2.61 µM)
MIC (Pseudomonas aeruginosa; [4]): 64 µg/mL (≈ 167 µM)
MIC (Pseudomonas aeruginosa; [5]): > 64 µg/mL
MIC (Pseudomonas aeruginosa; [6]): > 64 µg/mL
MIC (Pseudomonas aeruginosa; [7]): 8 µg/mL (≈ 20.9 µM)
MIC (Pseudomonas aeruginosa; [8]): 32 µg/mL (≈ 83.4 µM)
MIC (Pseudomonas aeruginosa; [9]): > 64 µg/mL
MIC (Pseudomonas aeruginosa; P. aeruginosa isolate AR-252): 64 µg/mL (≈ 167 µM)
MIC (Pseudomonas aeruginosa; [10]): > 64 µg/mL
MIC (Pseudomonas aeruginosa; [11]): 4 µg/mL (≈ 10.4 µM)
MIC (Pseudomonas aeruginosa; [12]): 16 µg/mL (≈ 41.7 µM)
MIC (E. coli; [13]): ≤ 0.125 µg/mL
MIC (E. coli; E. coli isolate AA-118, NDM): > 64 µg/mL
MIC (E. coli; E. coli isolate AA-119, NDM): 64 µg/mL (≈ 167 µM)
MIC (E. coli; E. coli isolate AA-128, NDM): 64 µg/mL (≈ 167 µM)
MIC (E. coli; [14]): 4 µg/mL (≈ 10.4 µM)
MIC (E. coli; E. coli isolate AR-1, KPC-3): 4 µg/mL (≈ 10.4 µM)
MIC (E. coli; [15]): ≤ 0.125 µg/mL
MIC (E. coli; E. coli isolate AR-137, NDM-6): > 64 µg/mL
MIC (E. coli; E. coli isolate AR-145, NDM): > 64 µg/mL
MIC (E. coli; E. coli isolate J4244, MN): ≤ 0.125 µg/mL
MIC (E. coli; [16]): ≤ 0.125 µg/mL
SMILES: C[C@@H](O)[C@H]1C(=O)N2C(C(=O)O)=C(S[C@@H]3CN[C@H](C(=O)N(C)C)C3)[C@H](C)[C@H]12 [Meropenem]

From US11746111B2, “Siderophore conjugated pyrazolidinones, and analogues thereof” (YALE UNIVERSITY, priority 2018, dated 2023)
